Measured values taken from US11564928B1, “Cannabinoid receptor type 2 (CB2) modulators and uses thereof” (Teon Therapeutics, Inc., priority 2020, dated 2023).
Like-named read-outs stand apart in the source and are kept apart here.

Experiments:
human CB2 receptor = human CB2 receptor (Homo sapiens (Human), UniProt P34972); experiment: CB2 receptor binding assay ([3H]CP-55,940 displacement, HEK-293 membranes)
Protocol: The compounds were evaluated in CB1R and CB2R binding assays using membranes from HEK-293 cells transfected with cDNAs encoding the human recombinant CB1R (Bmax=[…] protein) and human recombinant CB2R (Bmax=[…] protein) (Perkin-Elmer). […] Compounds were tested following the procedure described by the cell membrane manufacturer. […] CB2R binding assays were carried out with two different buffers: incubation buffer (Tris-HCl, 50 mM; MgCl2, 5 mM; CaCl2 1 mM; BSA, 0.2% at pH 7.4) and washing buffer (Tris-HCl, 50 mM; NaCl 500 mM; BSA, 0.1% at pH 7.4). […] Assays were performed in duplicate and incubated for […] at 37° C. […] Data are analyzed and IC50 is calculated using GraphPad Prism 5 and the model “log(inhibitor) vs. response—Variable slope”. The binding affinity of the compounds is Determined by Using the Cheng and Prusoff Equation Ki=IC50/(1+[radioligand]/Kd).

human recombinant CB1R = human recombinant CB1R (Homo sapiens (Human), UniProt P21554); experiment: CB1 receptor binding assay ([3H]CP-55,940 displacement, HEK-293 membranes)
human recombinant CB1R, sequence (P21554 whole entry): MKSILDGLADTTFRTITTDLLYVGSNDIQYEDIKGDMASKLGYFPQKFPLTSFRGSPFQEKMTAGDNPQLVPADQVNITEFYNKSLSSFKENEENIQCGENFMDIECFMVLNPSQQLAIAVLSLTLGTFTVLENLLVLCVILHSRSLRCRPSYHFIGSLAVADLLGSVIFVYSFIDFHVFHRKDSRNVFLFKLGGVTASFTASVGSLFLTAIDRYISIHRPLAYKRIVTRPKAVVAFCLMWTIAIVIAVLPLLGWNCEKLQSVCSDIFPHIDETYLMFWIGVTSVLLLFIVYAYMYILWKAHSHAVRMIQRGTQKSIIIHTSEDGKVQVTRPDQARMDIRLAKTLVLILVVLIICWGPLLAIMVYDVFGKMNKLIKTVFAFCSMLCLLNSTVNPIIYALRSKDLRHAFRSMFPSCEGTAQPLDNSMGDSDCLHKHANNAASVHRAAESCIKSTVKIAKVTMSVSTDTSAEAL
Protocol: The compounds were evaluated in CB1R and CB2R binding assays using membranes from HEK-293 cells transfected with cDNAs encoding the human recombinant CB1R (Bmax=[…] protein) and human recombinant CB2R (Bmax=[…] protein) (Perkin-Elmer). […]. Compounds were tested following the procedure described by the cell membrane manufacturer. […] CB2R binding assays were carried out with two different buffers: incubation buffer (Tris-HCl, 50 mM; MgCl2, 5 mM; CaCl2 1 mM; BSA, 0.2% at pH 7.4) and washing buffer (Tris-HCl, 50 mM; NaCl 500 mM; BSA, 0.1% at pH 7.4). […] Assays were performed in duplicate and incubated for […] at 37° C. After the incubation, the assay mixture is filtered through 96 GF/C filter plates (Perkin Elmer #6005174) using Perkin Elmer Filtermate Harvester, and then washed four times with ice-cold washing buffer. The filters are dried for 1 hour at 50° C. and [^3H] trapped on filter counted for radioactivity in Perkin Elmer Microscint 20 cocktail (#6013329) using Perkin Elmer MicroBeta2 Reader. […] Data are analyzed and IC50 is calculated using GraphPad Prism 5 and the model “log(inhibitor) vs. response—Variable slope”. The binding affinity of the compounds is Determined by Using the Cheng and Prusoff Equation Ki=IC50/(1+[radioligand]/Kd).

[1] = membranes of HEK-293 cells with human recombinant CB1R, [3H]CP-55,940, class symbols, read-out: CB1 IC50
[2] = membranes of HEK-293 cells with human recombinant CB2R, [3H]CP-55,940, class symbols, read-out: CB2 IC50
[3] = membranes of HEK-293 cells with human recombinant CB2R, [3H]CP-55,940, read-out: CB2 IC50
[4] = membranes of HEK-293 cells with human recombinant CB1R, [3H]CP-55,940, read-out: CB1 IC50

human CB2 receptor, sequence (P34972 whole entry): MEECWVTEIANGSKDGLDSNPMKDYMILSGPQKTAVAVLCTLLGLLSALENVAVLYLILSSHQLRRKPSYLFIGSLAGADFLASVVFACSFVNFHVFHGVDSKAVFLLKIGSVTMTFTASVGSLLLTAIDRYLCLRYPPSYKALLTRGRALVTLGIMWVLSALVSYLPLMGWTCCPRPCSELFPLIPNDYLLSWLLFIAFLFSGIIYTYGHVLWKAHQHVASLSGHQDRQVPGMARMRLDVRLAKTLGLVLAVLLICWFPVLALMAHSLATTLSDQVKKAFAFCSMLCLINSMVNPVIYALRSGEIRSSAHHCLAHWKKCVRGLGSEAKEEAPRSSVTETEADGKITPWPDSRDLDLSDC

Row | Structure (SMILES) | IC50 (human CB2 receptor) [nM] | IC50 (human recombinant CB1R; [1]) [nM] | IC50 (human CB2 receptor; [2]) [nM] | IC50 (human CB2 receptor; [3]) [nM] | IC50 (human recombinant CB1R; [4]) [nM] | further results
1 | CC(NC(=O)c1c(O)c2cc(Br)cnc2n(Cc2ccc(F)cc2)c1=O)c1ccc(F)cc1 (stereo not shown) [Compound 1, 6-bromo-1-(4-fluorobenzyl)-N-(1-(4-fluorophenyl)ethyl)-4-hydroxy-2-oxo-1,2-dihydro-1,8-naphthyridine-3-carboxamide] | 100 to 999 | > 1000 | – | – | – | –
2 | O=C(NC1CC2(CCC2)C1)c1c(O)c2cc(Br)cnc2n(Cc2ccc(F)cc2)c1=O [Compound 2, 6-bromo-1-(4-fluorobenzyl)-4-hydroxy-2-oxo-N-(spiro[3.3]heptan-2-yl)-1,2-dihydro-1,8-naphthyridine-3-carboxamide] | 100 to 999 | > 1000 | – | – | – | –
3 | CC(NC(=O)c1c(O)c2cc(Br)cnc2n(Cc2ccc(F)cc2)c1=O)c1ccc(C#N)cc1 (stereo not shown) [Compound 3, 6-bromo-N-(1-(4-cyanophenyl)ethyl)-1-(4-fluorobenzyl)-4-hydroxy-2-oxo-1,2-dihydro-1,8-naphthyridine-3-carboxamide] | 100 to 999 | > 1000 | – | – | – | –
4 | O=C(NC12CC(C1)C2)c1c(O)c2cc(-c3ccc(OC(F)F)cc3)cnc2n(CCN2CCOCC2)c1=O [Compound 12, N-(bicyclo[1.1.1]pentan-1-yl)-6-(4-(difluoromethoxy)phenyl)-4-hydroxy-1-(2-morpholinoethyl)-2-oxo-1,2-dihydro-1,8-naphthyridine-3-carboxamide] | – | > 1000 | > 1000 | – | – | –
5 | CC1CCC(NC(=O)c2c(O)c3cc(-c4ccc(C5CC5)cc4)cnc3n(CCN3CCOCC3)c2=O)CC1 (stereo not shown) [Compound 17, 6-(4-cyclopropylphenyl)-4-hydroxy-N-(4-methylcyclohexyl)-1-(2-morpholinoethyl)-2-oxo-1,2-dihydro-1,8-naphthyridine-3-carboxamide] | 100 to 999 | > 1000 | – | – | – | –
6 | CC1CCC(NC(=O)c2c(O)c3cc(-c4ccc(OC(C)C)cc4)cnc3n(CCN3CCOCC3)c2=O)CC1 (stereo not shown) [Compound 18, 4-hydroxy-6-(4-isopropoxyphenyl)-N-(4-methylcyclohexyl)-1-(2-morpholinoethyl)-2-oxo-1,2-dihydro-1,8-naphthyridine-3-carboxamide] | – | > 1000 | > 1000 | – | – | –
7 | CC(NC(=O)c1c(O)c2cc(-c3ccc(C#N)cn3)cnc2n(CCN2CCOCC2)c1=O)c1ccc(F)cc1 (stereo not shown) [Compound 21, 6-(5-cyanopyridin-2-yl)-N-(1-(4-fluorophenyl)ethyl)-4-hydroxy-1-(2-morpholinoethyl)-2-oxo-1,2-dihydro-1,8-naphthyridine-3-carboxamide] | 100 to 999 | > 1000 | – | – | – | –
8 | N#Cc1ccc(-c2cnc3c(c2)c(O)c(C(=O)NC2CC4(CCC4)C2)c(=O)n3CCN2CCOCC2)nc1 [Compound 22, 6-(5-cyanopyridin-2-yl)-4-hydroxy-1-(2-morpholinoethyl)-2-oxo-N-(spiro[3.3]heptan-2-yl)-1,2-dihydro-1,8-naphthyridine-3-carboxamide] | 100 to 999 | > 1000 | – | – | – | –
9 | O=C(NC1CC2(CCC2)C1)c1c(O)c2cc(-c3ccc(F)cc3)ccc2n(CCN2CCOCC2)c1=O [Compound 23, 6-(4-fluorophenyl)-4-hydroxy-1-(2-morpholinoethyl)-2-oxo-N-(spiro[3.3]heptan-2-yl)-1,2-dihydroquinoline-3-carboxamide] | – | – | < 100 | – | – | IC50 (human recombinant CB1R): 100 to 999 nM
10 | CC(NC(=O)c1c(O)c2cc(-c3ccc(C#N)cn3)cnc2n(Cc2ccc(F)cc2)c1=O)c1ccc(C#N)cc1 (stereo not shown) [Compound 24, N-(1-(4-cyanophenyl)ethyl)-6-(5-cyanopyridin-2-yl)-1-(4-fluorobenzyl)-4-hydroxy-2-oxo-1,2-dihydro-1,8-naphthyridine-3-carboxamide] | – | > 1000 | > 1000 | – | – | –
11 | O=C(NC1CC2(CCC2)C1)c1c(O)c2cc(-c3ccc(OC(F)F)cn3)cnc2n(CCN2CCOCC2)c1=O [Compound 25, 6-(5-(difluoromethoxy)pyridin-2-yl)-4-hydroxy-1-(2-morpholinoethyl)-2-oxo-N-(spiro[3.3]heptan-2-yl)-1,2-dihydro-1,8-naphthyridine-3-carboxamide] | – | > 1000 | > 1000 | – | – | –
12 | COc1ccc(-c2cnc3c(c2)cc(C(=O)NC2CCC(C)(C)CC2)c(=O)n3CCN2CCOCC2)cc1 [Compound 26, N-(4,4-dimethylcyclohexyl)-6-(4-methoxyphenyl)-1-(2-morpholinoethyl)-2-oxo-1,2-dihydro-1,8-naphthyridine-3-carboxamide] | – | – | – | 2.2 | > 10000 | –
13 | COc1ccc(-c2cnc3c(c2)cc(C(=O)NC2CCC(F)(F)CC2)c(=O)n3CCN2CCOCC2)cc1 [Compound 27, N-(4,4-difluorocyclohexyl)-6-(4-methoxyphenyl)-1-(2-morpholinoethyl)-2-oxo-1,2-dihydro-1,8-naphthyridine-3-carboxamide] | – | – | – | 2 | > 10000 | –
14 | COc1ccc(-c2cnc3c(c2)cc(C(=O)NC2CCC4(CC2)CC4)c(=O)n3CCN2CCOCC2)cc1 [Compound 28, 6-(4-methoxyphenyl)-1-(2-morpholinoethyl)-2-oxo-N-(spiro[2.5]octan-6-yl)-1,2-dihydro-1,8-naphthyridine-3-carboxamide] | – | – | – | 0.7 | > 10000 | –
15 | O=C(NC1CC2(CCC2)C1)c1cc2cc(-c3ccc(F)cc3)cnc2n(CCN2CCOCC2)c1=O [Compound 32, 6-(4-fluorophenyl)-1-(2-morpholinoethyl)-2-oxo-N-(spiro[3.3]heptan-2-yl)-1,2-dihydro-1,8-naphthyridine-3-carboxamide] | – | – | – | 0.8 | 39 | –
16 | O=C(NC1CC2(CCC2)C1)c1cc2cc(-c3ccccn3)cnc2n(CCN2CCOCC2)c1=O [Compound 34, 1-(2-morpholinoethyl)-2-oxo-6-(pyridin-2-yl)-N-(spiro[3.3]heptan-2-yl)-1,2-dihydro-1,8-naphthyridine-3-carboxamide] | – | – | – | 1 | 184 | –
17 | O=C(NC1CC2(CCC2)C1)c1cc2cc(-c3ccncn3)cnc2n(CCN2CCOCC2)c1=O [Compound 35, 1-(2-morpholinoethyl)-2-oxo-6-(pyrimidin-4-yl)-N-(spiro[3.3]heptan-2-yl)-1,2-dihydro-1,8-naphthyridine-3-carboxamide] | – | – | – | 7.5 | 358 | –
18 | O=C(NC1CC2(CCC2)C1)c1cc2cc(-c3ccc(F)cn3)cnc2n(CCN2CCOCC2)c1=O [Compound 37, 6-(5-fluoropyridin-2-yl)-1-(2-morpholinoethyl)-2-oxo-N-(spiro[3.3]heptan-2-yl)-1,2-dihydro-1,8-naphthyridine-3-carboxamide] | – | – | – | 0.6 | 112 | –
19 | O=C(NC1CC2(CCC2)C1)c1cc2cc(-c3ncccn3)cnc2n(CCN2CCOCC2)c1=O [Compound 38, 1-(2-morpholinoethyl)-2-oxo-6-(pyrimidin-2-yl)-N-(spiro[3.3]heptan-2-yl)-1,2-dihydro-1,8-naphthyridine-3-carboxamide] | – | – | < 100 | – | – | IC50 (human recombinant CB1R): 100 to 999 nM
20 | COc1ccc(-c2ccc3c(c2)cc(C(=O)NC2CCC(C)(C)CC2)c(=O)n3CCN2CCOCC2)cc1 [Compound 39, N-(4,4-dimethylcyclohexyl)-6-(4-methoxyphenyl)-1-(2-morpholinoethyl)-2-oxo-1,2-dihydroquinoline-3-carboxamide] | – | – | – | 1.2 | > 10000 | –
21 | CC(NC(=O)c1cc2cc(-c3ccc(C#N)cn3)cnc2n(CCN2CCOCC2)c1=O)c1ccc(C#N)cc1 (stereo not shown) [Compound 41, N-(1-(4-cyanophenyl)ethyl)-6-(5-cyanopyridin-2-yl)-1-(2-morpholinoethyl)-2-oxo-1,2-dihydro-1,8-naphthyridine-3-carboxamide] | 100 to 999 | > 1000 | – | – | – | –
22 | O=C(NC12CC(C1)C2)c1cc2cc(-c3ccc(OC(F)F)cc3)cnc2n(CCN2CCOCC2)c1=O [Compound 54, N-(bicyclo[1.1.1]pentan-1-yl)-6-(4-(difluoromethoxy)phenyl)-1-(2-morpholinoethyl)-2-oxo-1,2-dihydro-1,8-naphthyridine-3-carboxamide] | – | > 1000 | < 100 | – | – | –
23 | CC(NC(=O)c1cc2cc(-c3ccc(C#N)cn3)cnc2n(CC(C)(C)N2CCOCC2)c1=O)c1ccc(F)cc1 (stereo not shown) [Compound 56, 6-(5-cyanopyridin-2-yl)-N-(1-(4-fluorophenyl)ethyl)-1-(2-methyl-2-morpholinopropyl)-2-oxo-1,2-dihydro-1,8-naphthyridine-3-carboxamide] | – | > 1000 | < 100 | – | – | –
